These compounds were tested against T1, human MR (Homo sapiens, UniProt P08235) (assay: Mineralocorticoid Receptor Binding Assay (Method 1)). Settings: [3H]-aldosterone, racemic mixture unless otherwise indicated.
T1 construct: The full length human MR gene is cloned from a human kidney or human brain cDNA library; made in house; host or cells: SF9 insect cells (baculovirus)
T1 sequence (P08235 1-984): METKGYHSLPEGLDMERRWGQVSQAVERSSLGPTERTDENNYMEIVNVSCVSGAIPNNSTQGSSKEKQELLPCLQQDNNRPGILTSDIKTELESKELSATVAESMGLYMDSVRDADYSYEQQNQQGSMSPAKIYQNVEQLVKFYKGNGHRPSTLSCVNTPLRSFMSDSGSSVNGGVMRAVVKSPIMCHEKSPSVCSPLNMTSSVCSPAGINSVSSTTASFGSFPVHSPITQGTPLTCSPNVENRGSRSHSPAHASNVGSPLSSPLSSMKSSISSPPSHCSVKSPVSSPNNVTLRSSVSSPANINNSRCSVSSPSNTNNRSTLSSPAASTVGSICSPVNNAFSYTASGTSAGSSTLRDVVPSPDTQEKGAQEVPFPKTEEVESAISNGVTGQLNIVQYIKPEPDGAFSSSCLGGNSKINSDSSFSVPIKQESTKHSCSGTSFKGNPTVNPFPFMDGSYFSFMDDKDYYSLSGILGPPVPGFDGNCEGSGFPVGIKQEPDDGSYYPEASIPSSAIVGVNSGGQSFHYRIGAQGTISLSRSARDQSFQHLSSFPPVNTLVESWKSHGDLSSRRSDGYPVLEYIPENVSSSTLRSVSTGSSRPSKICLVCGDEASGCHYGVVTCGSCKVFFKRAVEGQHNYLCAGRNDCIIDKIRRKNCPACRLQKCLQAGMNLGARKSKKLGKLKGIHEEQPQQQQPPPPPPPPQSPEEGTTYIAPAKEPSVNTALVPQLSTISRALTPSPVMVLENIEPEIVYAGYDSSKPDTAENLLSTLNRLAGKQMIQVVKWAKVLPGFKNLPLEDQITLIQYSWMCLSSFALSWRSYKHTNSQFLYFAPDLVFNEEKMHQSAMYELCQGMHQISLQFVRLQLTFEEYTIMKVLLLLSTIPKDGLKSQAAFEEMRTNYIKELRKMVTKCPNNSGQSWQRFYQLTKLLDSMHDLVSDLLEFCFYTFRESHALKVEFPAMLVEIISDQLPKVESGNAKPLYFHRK
Description: The full length human MR gene is cloned from a human kidney or human brain cDNA library. Briefly, using synthetic oligonucleotide primers (Eli Lilly and Company, Indianapolis) directed to nucleotides 20-54 and 3700-3666 of the human MR, polymerase chain reaction (PCR) is performed under standard conditions using a human cDNA library. The PCR reaction is performed in a final volume of 50 μl containing about 1 μl of a 50× stock solution of polymerase; about 1 μl of a 50× stock solution of dNTP; about 5 μl of an appropriate PCR buffer; about 1 μl of each primer; about 5 μl of a H. kidney or H. brain cDNA library; and about 36 μl of water. The reaction is allowed to denature for about 30 seconds at 95 degrees Celsius, anneal for about 30 seconds at 55 degrees Celsius, and extend for about 5 minutes at 72 degrees Celsius, the sequence being repeated for a total of about 35 cycles. The desired PCR product (3.68 Kb) is confirmed by gel electrophoresis and subsequently cut from the gel and stored at about −20 degrees Celsius until extraction. To extract the cDNA product from the agarose gel, the QIAEX II Gel Extraction protocol (QIAGEN, Inc.) is employed according to the manufacturer's instructions. Following extraction, the MR cDNA is cloned into an appropriate cloning vector (Zero Blunt TOPO PCR Cloning Kit (Invitrogen, Inc.) and a pAcHLT-baculovirus transfer vector (B.D./Pharminogen), then expressed in SF9 insect cells, essentially according to manufacturer's instructions. Sf9 cells are grown at a scale where gram quantity cell pellets are obtained for subsequent use in the MR binding assay. Harvested cell pellets are lysed by repeated freeze-thaw cycles (about 4) in a suitable lysis buffer then centrifuged at about 1×10^3 G (with the supernatant being saved for future assays).
MR binding assays are performed in a final total volume of about 250 μl containing about 20-25 μg of protein and 0.5 nM of [^3H]-aldosterone plus varying concentrations of test compound or vehicle. The assay binding buffer consists of 30 mM sodium molybdate, 30 mM of TRIS-HCl, 5 mM sodium phosphate, 5 mM sodium pyrophosphate, and about 10% glycerol, pH=7.5.
Briefly, assays are prepared at RT in 96-well Falcon 3072 plates, each well containing 210 μl of binding buffer, 10 μl of [^3H]-aldosterone, 10 μl of test compound/vehicle, and 20 μl of the resuspended receptor protein extract. Incubations are carried out at 4 degrees Celsius with shaking for about 16 hours. 200 μl aliquots of each incubation are filtered onto Millipore HA 0.45 micron 96-well filter plates, pre-moistened with cold 30 mM TRIS-HCl. The filter plates are suctioned dry with vacuum and immediately washed 3× with cold 30 mM TRIS-HCl. The plates are then punched out and the amount of receptor-ligand complex is determined by liquid scintillation counting using 4 ml of Ready Protein Plus™ liquid scintillation cocktail.
IC50 values (defined as the concentration of test compound required to decrease [^3H]-aldosterone binding by 50%) are then determined. Ki values for each respective test compound can then be calculated by application of the Cheng-Prusoff equation as described in Cheng et al., Relationship Between The Inhibition Constant (Ki) and The Concentration of Inhibitor Which Causes 50% Inhibition (IC50) of an Enzymatic Reaction, Biochem. Pharmacol., 22: 3099-31088; (1973).

Row | Compound | Ki [nM]
1 | CC1(c2c[nH]c3c(NS(C)(=O)=O)cccc23)CCOc2cc(F)ccc21 (single isomer, unassigned) [Example 34B, N-[3-(7-Fluoro-4-methyl-chroman-4-yl)-1H-indol-7-yl]-methanesulfonamide] | ≤ 500
2 | CCC1(c2c[nH]c3c(NS(C)(=O)=O)cccc23)CCOc2cc(F)ccc21 (single isomer, unassigned) [Example 35A, N-[3-(4-Ethyl-7-fluoro-chroman-4-yl)-1H-indol-7-yl]-methanesulfonamide] | ≤ 500
3 | CCC1(c2c[nH]c3c(NS(C)(=O)=O)cccc23)CCOc2cc(F)ccc21 (single isomer, unassigned) [Example 35B, N-[3-(4-Ethyl-7-fluoro-chroman-4-yl)-1H-indol-7-yl]-methanesulfonamide] | ≤ 500
4 | CCC1(c2c[nH]c3c(NS(C)(=O)=O)cccc23)CCOc2cc(F)cc(F)c21 (single isomer, unassigned) [Example 36A, N-[3-(4-Ethyl-5,7-difluoro-chroman-4-yl)-1H-indol-7-yl]-methanesulfonamide] | ≤ 500
5 | CCC1(c2c[nH]c3c(NS(C)(=O)=O)cccc23)CCOc2cc(F)cc(F)c21 (single isomer, unassigned) [Example 36B, N-[3-(4-Ethyl-5,7-difluoro-chroman-4-yl)-1H-indol-7-yl]-methanesulfonamide] | ≤ 500
6 | CS(=O)(=O)Nc1cccc2c(C3(C4CC4)CCc4cc(F)ccc43)c[nH]c12 (single isomer, unassigned) [Example 39A, N-[3-(1-Cyclopropyl-5-fluoro-indan-1-yl)-1H-indol-7-yl]-methanesulfonamide] | ≤ 500
7 | CS(=O)(=O)Nc1cccc2c(C3(C4CC4)CCc4cc(F)ccc43)c[nH]c12 (single isomer, unassigned) [Example 39B, N-[3-(1-Cyclopropyl-5-fluoro-indan-1-yl)-1H-indol-7-yl]-methanesulfonamide] | ≤ 500
8 | CS(=O)(=O)Nc1cccc2c(C3(CCCO)CCc4cc(F)ccc43)c[nH]c12 (single isomer, unassigned) [Example 40A, N-{3-[5-Fluoro-1-(3-hydroxy-propyl)-indan-1-yl]-1H-indol-7-yl}-methanesulfonamide] | ≤ 500
9 | CS(=O)(=O)Nc1cccc2c(C3(CCCO)CCc4cc(F)ccc43)c[nH]c12 (single isomer, unassigned) [Example 40B, N-{3-[5-Fluoro-1-(3-hydroxy-propyl)-indan-1-yl]-1H-indol-7-yl}-methanesulfonamide] | ≤ 500
10 | CCC1(c2c[nH]c3c([N+](=O)[O-])cccc23)CCc2cc(F)ccc21 (stereo not drawn) [Example 2, 3-(1-Ethyl-5-fluoro-indan-1-yl)-7-nitro-1H-indole] | ≤ 500
11 | CCC1(c2cn(C)c3c(NS(C)(=O)=O)cccc23)CCc2cc(F)ccc21 (stereo not drawn) [Example 5, N-[3-(1-Ethyl-5-fluoro-indan-1-yl)-1-methyl-1H-indol-7-yl]-methanesulfonamide] | ≤ 500
12 | CCC1(c2c[nH]c3c(N)cccc23)CCc2cc(F)ccc21 (stereo not drawn) [Example 14, 3-(1-Ethyl-5-fluoro-indan-1-yl)-1H-indol-7-ylamine] | ≤ 500
13 | CCC1(c2c[nH]c3c(NC(=O)OC)cccc23)CCc2cc(F)ccc21 (stereo not drawn) [Example 15, [3-(1-Ethyl-5-fluoro-indan-1-yl)-1H-indol-7-yl]-carbamic acid methyl ester] | ≤ 500
14 | CCC1(c2c[nH]c3c(NC(C)=O)cccc23)CCc2cc(F)ccc21 (stereo not drawn) [Example 16, N-[3-(1-ethyl-5-fluoro-indan-1-yl)-1H-indol-7-yl]-acetamide] | ≤ 500
15 | CCC1(c2c[nH]c3c(NS(=O)(=O)N(C)C)cccc23)CCc2cc(F)ccc21 (stereo not drawn) [Example 17] | ≤ 500
16 | CCC1(c2c[nH]c3c(NS(=O)(=O)c4ccccc4)cccc23)CCc2cc(F)ccc21 (stereo not drawn) [Example 18, N-[3-(1-ethyl-5-fluoro-indan-1-yl)-1H-indol-7-yl]-benzenesulfonamide] | ≤ 500
17 | CCC1(c2c[nH]c3c(NS(=O)(=O)CC)cccc23)CCc2cc(F)ccc21 (stereo not drawn) [Example 19, Ethanesulfonic acid [3-(1-ethyl-5-fluoro-indan-1-yl)-1H-indol-7-yl]-amide] | ≤ 500
18 | CC1(c2c[nH]c3c(NS(C)(=O)=O)cccc23)CCc2ccccc21 (stereo not drawn) [Example 20, N-[3-(1-Methyl-indan-1-yl)-1H-indol-7-yl]-methanesulfonamide] | ≤ 500
19 | CC1(c2c[nH]c3c(NS(C)(=O)=O)cccc23)CCc2cc(-n3cccn3)ccc21 (stereo not drawn) [Example 24, N-[3-(1-Methyl-5-pyrazol-1-yl-indan-1-yl)-1H-indol-7-yl]-methanesulfonamide] | ≤ 500
20 | CS(=O)(=O)Nc1cccc2c(C3CCCc4ccccc43)c[nH]c12 (stereo not drawn) [Example 25, N-[3-(1,2,3,4-Tetrahydro-naphthalen-1-yl)-1H-indol-7-yl]-methanesulfonamide] | ≤ 500
21 | CC1(c2c[nH]c3c(NS(C)(=O)=O)cccc23)CCCc2ccccc21 (stereo not drawn) [Example 26, N-[3-(1-Methyl-1,2,3,4-tetrahydro-naphthalen-1-yl)-1H-indol-7-yl]-methanesulfonamide] | ≤ 500
22 | CCC1(c2c[nH]c3c(NS(C)(=O)=O)cccc23)CCCc2ccccc21 (stereo not drawn) [Example 27, N-[3-(1-Ethyl-1,2,3,4-tetrahydro-naphthalen-1-yl)-1H-indol-7-yl]-methanesulfonamide] | ≤ 500
23 | CC1(c2c[nH]c3c(NS(C)(=O)=O)cccc23)CCOc2ccccc21 (stereo not drawn) [Example 32, N-[3-(4-Methyl-chroman-4-yl)-1H-indol-7-yl]-methanesulfonamide] | ≤ 500
24 | CC1(c2c[nH]c3c(NS(C)(=O)=O)cccc23)CCOc2ccc(F)cc21 (stereo not drawn) [Example 33, N-[3-(6-Fluoro-4-methyl-chroman-4-yl)-1H-indol-7-yl]-methanesulfonamide] | ≤ 500
25 | CC1(c2c[nH]c3c(NS(C)(=O)=O)cccc23)CCSc2ccccc21 (stereo not drawn) [Example 37, N-[3-(4-Methyl-thiochroman-4-yl)-1-indol-7-yl]-methanesulfonamide] | ≤ 500
26 | CC1(c2c[nH]c3c(NS(C)(=O)=O)cccc23)CCCCc2ccccc21 (stereo not drawn) [Example 38, N-[3-(5-Methyl-6,7,8,9-tetrahydro-5H-benzocyclohepten-5-yl)-1H-indol-7-yl]-methanesulfonamide] | ≤ 500
27 | CS(=O)(=O)Nc1cccc2c(C3(CCCI)CCc4cc(F)ccc43)c[nH]c12 (stereo not drawn) [Example 41, N-{3-[5-Fluoro-1-(3-iodo-propyl)-indan-1-yl]-1H-indol-7-yl}-methanesulfonamide] | ≤ 500
